Consider 20 compounds from ChEMBL document CHEMBL1681724, “Discovery of potent and orally bioavailable heterocycle-based cannabinoid CB1 receptor agonists” (Bioorg Med Chem Lett, 2011).

Data set [1] can be described thus: Aqueous solubility of the compound at pH 7.4. Format: physicochemical. Conditions: aqueous medium.
The target of data set [2] is T1, Cannabinoid receptor 1 (Homo sapiens, UniProt P21554). The data set can be described thus: Agonist activity at human cannabinoid CB1 receptor expressed in CHO cells by luciferase reporter gene assay. The class given is functional, cell-based.
The nature of data set [3]: Tmax in rat at 5 mg/kg, po. The arrangement: dose 5 mg/kg, route oral. Conditions: in vivo. Format: ADME, organism-based.
Data set [4] in a line: AUC in rat plasma at 5 mg/kg, po. Format: ADME, organism-based. The arrangement: dose 5 mg/kg, route oral.
Data set [5] in a line: Oral bioavailability in rat at 5 mg/kg. Format: ADME, organism-based. Conditions: in vivo.
A short description of data set [6]: Cmax in rat at 5 mg/kg, po. The arrangement: dose 5 mg/kg, route oral. The class given is ADME, organism-based. Conditions: in vivo.
Data set [7] is described as follows: AUC in rat plasma at 0.4 mg/kg, iv. Format: ADME, organism-based. The arrangement: dose 0.4 mg/kg, route intravenous.
A short description of data set [8]: Apparent permeability from apical to basolateral side of human Caco2 cells. The following applies: Caco-2. Format: ADME, cell-based.
The nature of data set [9]: Apparent permeability from basolateral to apical side of human Caco2 cells. Conditions: Caco-2. Format: ADME, cell-based.
Data set [10] in a line: Genotoxicity in Salmonella Typhimurium at 10^-4 M by Ames test. Format: toxicity. The following applies: salmonella enterica subsp. enterica serovar typhimurium, 100 µM.
The target of data set [11] is T1, Cannabinoid receptor 1. The data set can be described thus: Displacement of [3H]CP55940 from human cannabinoid CB1 receptor expressed in insect Sf9 cells.
Data set [12] in a line: Volume of distribution at steady state in rat at 0.4 mg/kg, iv. Format: ADME, organism-based. The following applies: in vivo, read-out: Vdss. The arrangement: dose 0.4 mg/kg, route intravenous.
The nature of data set [13]: Half life in rat at 0.4 mg/kg, iv. Format: ADME, organism-based. The arrangement: dose 0.4 mg/kg, route intravenous. Conditions: in vivo.
The next data set addresses Cannabinoid receptor 2 (Homo sapiens, UniProt P34972). The data set can be described thus: Displacement of [3H]CP55940 from human cannabinoid CB2 receptor expressed in insect Sf9 cells.
The nature of data set [14]: Clearance in rat at 0.4 mg/kg, iv. The class given is ADME, organism-based. The arrangement: dose 0.4 mg/kg, route intravenous. The following applies: in vivo.

Values after ≈ are worked out from the molar mass of the structure shown.

T1 sequence (P21554 whole entry): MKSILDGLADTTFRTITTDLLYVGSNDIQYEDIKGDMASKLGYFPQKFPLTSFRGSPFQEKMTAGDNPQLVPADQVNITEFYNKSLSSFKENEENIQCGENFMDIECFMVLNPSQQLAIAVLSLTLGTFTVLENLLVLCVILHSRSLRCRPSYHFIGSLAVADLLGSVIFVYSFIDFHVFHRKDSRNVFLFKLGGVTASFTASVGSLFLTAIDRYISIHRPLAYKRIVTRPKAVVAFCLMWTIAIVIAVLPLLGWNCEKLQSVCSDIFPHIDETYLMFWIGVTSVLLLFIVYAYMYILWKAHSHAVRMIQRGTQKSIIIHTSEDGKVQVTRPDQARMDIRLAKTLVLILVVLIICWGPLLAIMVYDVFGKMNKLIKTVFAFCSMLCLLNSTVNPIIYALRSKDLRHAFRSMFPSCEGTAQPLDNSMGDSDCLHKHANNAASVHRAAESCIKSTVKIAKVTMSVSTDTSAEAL
Chain of Cannabinoid receptor 2 (P34972 whole entry): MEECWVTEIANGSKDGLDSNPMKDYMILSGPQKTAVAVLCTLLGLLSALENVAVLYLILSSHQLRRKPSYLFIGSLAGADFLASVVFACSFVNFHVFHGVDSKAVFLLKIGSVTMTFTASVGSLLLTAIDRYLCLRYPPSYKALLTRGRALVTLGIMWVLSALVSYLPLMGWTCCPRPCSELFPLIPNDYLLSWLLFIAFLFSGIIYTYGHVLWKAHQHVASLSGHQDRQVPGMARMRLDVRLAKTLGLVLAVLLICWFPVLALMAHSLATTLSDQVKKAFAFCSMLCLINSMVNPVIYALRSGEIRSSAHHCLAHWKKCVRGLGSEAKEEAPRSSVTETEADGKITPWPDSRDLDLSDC

Compound `COCCN(C)Cc1nc(-c2cn(CC3CCS(=O)(=O)CC3)c3c(Cl)cccc23)ns1` displayed a solubility in data set [1] of less than 1 µg/mL. In addition, the EC50 on Cannabinoid receptor 1 [2] was 0.2 µM.

For `O=C(O)C1CCCN1Cc1nc(-c2cn(CC3CCOCC3)c3c(Cl)cccc23)ns1` (stereo not drawn), in data set [1], the solubility came to 108 µg/mL (≈ 234 µM). Moreover, it took 0.158 µM to reach a half-maximal effect at Cannabinoid receptor 1 [2] (EC50).

In [1], `CN(Cc1nc(-c2cn(CC3CCOCC3)c3c(Cl)cccc23)no1)[C@@H](CO)C(N)=O` showed a solubility of 95 µg/mL (≈ 212 µM). The compound further had an EC50 at Cannabinoid receptor 1 [2] of 0.251 µM.

With `CN(CC(N)=O)Cc1nc(-c2cn(CC3CCOCC3)c3c(Cl)cccc23)no1`, the Tmax in data set [3] was 1 h. Moreover, the results for the AUC in data set [4] and in [7] were 1570 ng·h/mL and 244 ng·h/mL, respectively. This compound also gave a bioavailability in data set [5] of 53%. The same compound came in with a Cmax in [6] of 173 ng/mL. Also, the Papp A→B in [8] was 8.3 ×10⁻⁶ cm/s. Also, the Papp B→A in [9] worked out at 12.7 ×10⁻⁶ cm/s. Also, the Activity entry in [10] is listed as “Non-toxic”. This compound also had a solubility in [1] of 21 µg/mL (≈ 50.3 µM). Moreover, the Ki on Cannabinoid receptor 1 [11] is 0.00398 µM; on Cannabinoid receptor 2 it was 0.00631 µM. The Vd in data set [12] amounted to 3 L/kg. This compound also showed a half-life in data set [13] of 1.4 h. For the same compound, in [14], the clearance was determined as 28 mL/min/kg.

In data set [1], `CC(=O)N[C@@H]1CCN(Cc2nc(-c3cn(CC4CCOCC4)c4c(Cl)cccc34)ns2)C1` returned a solubility of 16 µg/mL (≈ 33.8 µM). Moreover, the EC50 at Cannabinoid receptor 1 [2] is 0.794 µM.

Take `CN(CC(=O)NCCO)Cc1nc(-c2cn(CC3CCOCC3)c3c(Cl)cccc23)no1`: in data set [1], the concentration in solution (solubility) was 88 µg/mL (≈ 190 µM).

In the case of `CN(CCO)Cc1nc(-c2cn(CC3CCOCC3)c3c(Cl)cccc23)ns1`, in [1], the solubility is less than 1 µg/mL. The compound further had an EC50 at Cannabinoid receptor 1 [2] of 0.0794 µM.

In [1], `COCCN(Cc1nc(-c2cn(CC3CCOCC3)c3c(Cl)cccc23)ns1)S(C)(=O)=O` yielded a solubility of less than 1 µg/mL.

The compound `OC[C@H]1CCCN1Cc1nc(-c2cn(CC3CCOCC3)c3c(Cl)cccc23)ns1` yielded a solubility in data set [1] of less than 1 µg/mL. This compound also gave an EC50 at Cannabinoid receptor 1 [2] of 0.0158 µM.

`CC(C)N(CCO)Cc1csc(-c2c(CC3CCOCC3)[nH]c3c(Cl)cccc23)n1` registered a bioavailability in [5] of 4%. The compound also displayed a solubility in data set [1] greater than 10 µg/mL. This compound also showed an EC50 on Cannabinoid receptor 1 [2] of no more than 0.1 µM.

`O=C(NCCO)C1CCN(Cc2nc(-c3cn(CC4CCOCC4)c4c(Cl)cccc34)no2)CC1` showed a solubility in data set [1] of 115 µg/mL (≈ 229 µM). At Cannabinoid receptor 1 [2], this compound had an EC50 of 0.126 µM.

In the case of `CS(=O)(=O)N(CCO)Cc1nc(-c2cn(CC3CCOCC3)c3c(Cl)cccc23)ns1`, in data set [1], the solubility is less than 1 µg/mL.

Regarding `Clc1cccc2c(-c3nsc(CN4CCCC4)n3)cn(CC3CCCCC3)c12`, the solubility in data set [1] was less than 1 µg/mL. The compound also showed an EC50 on Cannabinoid receptor 1 [2] of 0.0158 µM.

Consider `CN(C)S(=O)(=O)N(C)Cc1nc(-c2cn(CC3CCOCC3)c3c(Cl)cccc23)no1`, for which, in data set [1], the solubility was less than 1 µg/mL. At Cannabinoid receptor 1 [2], this compound showed an EC50 of 0.0316 µM.

Compound `Clc1cccc2c(-c3noc(CN4CCCC4)n3)cn(CC3CCOCC3)c12` came in with a solubility in [1] of less than 1 µg/mL. This compound also had an EC50 on Cannabinoid receptor 1 [2] of 0.1 µM.

`CCNC(=O)NCc1nc(-c2cn(CC3CCOCC3)c3c(Cl)cccc23)no1`: the solubility in data set [1] is less than 1 µg/mL. On Cannabinoid receptor 1 [2], this compound showed an EC50 of 2 µM.

`NC(=O)CNC(=O)[C@@H]1CCCN1Cc1nc(-c2cn(CC3CCOCC3)c3c(Cl)cccc23)ns1` came in with a solubility in data set [1] of 15 µg/mL (≈ 29 µM). This compound gave an EC50 on Cannabinoid receptor 1 [2] of 0.398 µM.

The compound `Clc1cccc2c(-c3nsc(CN4CCCC4)n3)cn(CC3CCOCC3)c12` registered a solubility in data set [1] of less than 1 µg/mL.

In data set [1], `COCCN(C)Cc1nc(-c2cn(CC3CCOCC3)c3c(Cl)cccc23)ns1` displayed a solubility of less than 1 µg/mL. On Cannabinoid receptor 1 [2], this compound showed an EC50 of 0.0794 µM.

`COCC(=O)NCc1nc(-c2cn(CC3CCOCC3)c3c(Cl)cccc23)no1`: the concentration in solution in data set [1] (solubility) came to 4 µg/mL (≈ 9.55 µM).
